Literature values in PubChem BioAssay AID1259409 (Chemical Carcinogenesis Research Information System (CCRIS), 2018).

System: rodent chemically induced tumor inhibition, incidence and multiplicity
Test: CCRIS tumor inhibitor studies
Conditions: Promoter: NONE USED

Q: What does the source list for `C[C@]12CC[C@H](O)CC1=CC[C@@H]1[C@@H]2CC[C@]2(C)C(=O)CC[C@@H]12`?
A: tumour outcome (control, treated, inhibition, significance) (Carcinogen: 1,2-DIMETHYLHYDRAZINE, 540-73-8, Dose [Inhibitor]: 0.6% IN DIET BEGINNING 2 WK PRIOR TO 1ST CARCINOGEN DOSE FOR DURATION OF EXPERIMENT (STUDY DURATION: 42 WK), Route [Inhibitor]: ORAL, Species: MOUSE, Strain/Sex: BALB/C/FEMALE, Target Tissue: Type of Lesion: ANUS: SQUAMOUS CELL CARCINOMA, FIBROSARCOMA, Dose [Carcinogen]: 21 MG/KG 1/WK FOR 20 WK): 38%, 50%, -32%, not calculated; tumour outcome (control, treated, inhibition, significance) (Carcinogen: 1,2-DIMETHYLHYDRAZINE, 540-73-8, Dose [Inhibitor]: 0.6% IN DIET BEGINNING 2 WK PRIOR TO 1ST CARCINOGEN DOSE FOR DURATION OF EXPERIMENT (STUDY DURATION: 42 WK), Route [Inhibitor]: ORAL, Species: MOUSE, Strain/Sex: BALB/FEMALE, Target Tissue: Type of Lesion: ANUS: SQUAMOUS CELL CARCINOMA, FIBROSARCOMA, Dose [Carcinogen]: 21 MG/KG 1/WK FOR 20 WK): 26/151 (17%), 0/141 (0%), 100%, p<0.001; tumour outcome (control, treated, inhibition, significance) (Carcinogen: 7,12-DIMETHYLBENZ[A]ANTHRACENE, 57-97-6, Dose [Inhibitor]: 0.6% IN DIET BEGINNING 9 D POST CARCINOGEN DOSE (STUDY DURATION: 14 WK AFTER AGENT TREATMENT), Route [Inhibitor]: ORAL, Species: MOUSE, Strain/Sex: STRAIN-A/FEMALE, Target Tissue: Type of Lesion: LUNG: TUMOR, Dose [Carcinogen]: 0.5 MG IN 0.2 ML SESAME OIL ONCE): 28/28 (100%), 20/23 (87%), 13%, not calculated; tumour outcome (control, treated, inhibition, significance) (Carcinogen: 7,12-DIMETHYLBENZ[A]ANTHRACENE, 57-97-6, Dose [Inhibitor]: 100 UG IN 0.2 ML ACETONE 1 HR PRIOR TO EACH CARCINOGEN DOSE (STUDY DURATION: 290 D), Route [Inhibitor]: DERMAL, Species: MOUSE, Strain/Sex: CD-1/FEMALE, Target Tissue: Type of Lesion: SKIN: CARCINOMA, Dose [Carcinogen]: 200 NMOL AT 6-7 WK OF AGE THEN 100 NMOL 1/WK 2 WK LATER): 14/28 (50%), 5/26 (19%), 62%, p<0.001; tumour outcome (control, treated, inhibition, significance) (Carcinogen: 7,12-DIMETHYLBENZ[A]ANTHRACENE, 57-97-6, Dose [Inhibitor]: 400 UG IN 0.2 ML ACETONE 1 HR PRIOR TO EACH CARCINOGEN DOSE (STUDY DURATION: 290 D), Route [Inhibitor]: DERMAL, Species: MOUSE, Strain/Sex: CD-1/FEMALE, Target Tissue: Type of Lesion: SKIN: CARCINOMA, Dose [Carcinogen]: 200 NMOL AT 6-7 WK OF AGE THEN 100 NMOL 1/WK 2 WK LATER): 14/28 (50%), 3/27 (11%), 78%, p<0.001; tumour outcome (control, treated, inhibition, significance) (Carcinogen: AZOXYMETHANE, 25843-45-2, Dose [Inhibitor]: 0, 0.5% DIET BEGINNING 1 DAY AFTER LAST CARCINOGEN DOSE AND CONTINUING FOR DURATION OF STUDY (STUDY DURATION: 18 WK), Route [Inhibitor]: ORAL, Species: RAT, Strain/Sex: F344/MALE, Target Tissue: Type of Lesion: COLON: TUMOR, Dose [Carcinogen]: 10 MG/KG 1/WK FOR 10 WK): 10/15 (67%), 7/15 (47%), 30%, not significant; tumour outcome (control, treated, inhibition, significance) (Carcinogen: AZOXYMETHANE, 25843-45-2, Dose [Inhibitor]: 0, 0.5% DIET BEGINNING 1 DAY AFTER LAST CARCINOGEN DOSE AND CONTINUING FOR DURATION OF STUDY (STUDY DURATION: 18 WK), Route [Inhibitor]: ORAL, Species: RAT, Strain/Sex: F344/MALE, Target Tissue: Type of Lesion: SMALL INTESTINE: TUMOR, Dose [Carcinogen]: 10 MG/KG 1/WK FOR 10 WK): 10/15 (67%), 8/15 (53%), 21%, not significant
